Test [1] in a line: modified phenyl-p-quinone writhing assay in mice (analgesia). The class given is in vivo, mice (male, Charles River, CD-1). The procedure: The procedure employed to determine analgesic utility is a modification of the phenyl-p-quinone writhing assay in mice, a standard assay for analgesia [Proc. Soc. Exptl. Bio. Med., 95 729 (1957)]. In the modified procedure phenyl-p-benzoquinone (Eastman, 12.5 mg) is dissolved in 5 ml of 95% ethanol and the solution is diluted to a total volume of 100 ml with distilled water. The solution is administered to the subject mice […] at a dose of 10 ml per kg of body weight. A characteristic "writh", an inward rotation of one or more feet with twisting and turning of the trunk, drawing in of the abdominal wall, lordosis and arching of the back, is produced.
A total of 28 male mice (Charles River, CD-1), weighing 18 to 30 grams, are employed for a time response. The subject animals receive food and water ad libitum. Test compounds are dissolved in distilled water, or suspended in distilled water containing one drop of a suitable surfactant, such as Tween-80.
Four groups of five animals (20 animals) are given the test compound subcutaneously at 15, 30, 45 and 60 minutes prior to administration of the phenyl-p-quinone. Four control groups of 2 animals (8 animals) receive an equal volume of the vehicle. […] The number of writhes for each animal is recorded. […]
Background: Writhing tests count abdominal constrictions after an irritant is injected.

Test [2] in a line: climbing mice assay (antipsychotic activity; inhibition of apomorphine induced climbing). It counts as in vivo, mice (CK-1 male). The following applies: Mus musculus, ip, 30 minutes prior to apomorphine 1.5 mg/kg s.c., read-out: Anti-Psychotic Activity (ED50), 50% inhibition of apomorphine induced climbing. The text has this: The subject CK-1 male mice (23-27 grams) are group-housed under standard laboratory conditions. The mice are individually placed in wire mesh stick cages (4"×4" by 10") and are allowed one hour for adaptation and exploration of the new environment.
Mice consistently climbing before the injection of apomorphine are discarded.
With full-developed apomorphine climbing, the animals are hanging onto the cage walls, rather motionless, over longer periods of time. By contrast, climbs due to mere motor stimulation usually last only a few seconds.

As to `CC(C)=CCN1CCC2(C)c3cc(O)ccc3CC1C2C` (stereo not shown) [Pentazocine], in test [1] (at 1.3 mg/kg sc, standard), the “Analgesic Activity (% Inhibition of Writhing)” value is 50%.

Regarding `CSc1ccc2c(c1)N(CCC1CCCCN1C)c1ccccc1S2` (stereo not shown) [Thioridazine], the ED50 (as a rule, the dose that gives a 50% effect, or the effect in half of the subjects) in test [2] turned out to be 4.1 mg/kg.

Regarding `CSc1ccc2c(c1)N(CCCN1CCC(C(O)c3ccc(F)cc3)CC1)c1ccccc1S2` (stereo not drawn) [α-(4-Fluorophenyl)-1-[3-(2-methylthiophenothiazin-10-yl)propyl]-4-piperidinemethanol], in test [1] (at 20 mg/kg, subcutaneous (route per method)), the “Analgesic Activity (% Inhibition of Writhing)” value is 43%. Besides, the ED50 in test [2] was 8.6 mg/kg.
